From US7674906B2, “Tetracyclic immunomodulatory compounds” (Active Biotech AB, priority 2002, dated 2010)

Biological target: T1, CD80-CD 28 interaction (Homo sapiens, UniProt P33681)
T1 sequence (P33681 35-242 limits assumed): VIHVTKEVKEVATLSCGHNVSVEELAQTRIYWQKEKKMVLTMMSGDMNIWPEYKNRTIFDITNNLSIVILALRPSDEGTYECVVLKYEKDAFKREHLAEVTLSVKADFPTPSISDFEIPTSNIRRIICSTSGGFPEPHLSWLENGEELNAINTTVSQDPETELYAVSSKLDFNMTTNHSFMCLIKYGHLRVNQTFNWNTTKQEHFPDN
Assay: cell free Homogenous Time Resolved Fluorescence (HTRF) assay, inhibition of the CD80-CD28 interaction
Assay type: binding
Conditions: CD28-mouse Fc fusion protein and CD80 mouse Fab fragment (C215) fusion protein, 4 hours at room temperature, concentration series 100 μM-1.7 nM
Description: The examples described above were tested in a cell free Homogenous Time Resolved Fluorescence (HTRF) assay to determine their activity as inhibitors of the CD80-CD 28 interaction.
In the assay, europium and allophycocyanin (APC) are associated with CD28 and CD80 indirectly (through anti-body linkers) to form a complex, which brings the europium and APC into close proximity to generate a signal. The complex comprises the following six proteins: fluorescent label 1, linker antibody 1, CD28 fusion protein, CD80 fusion protein, linker antibody 2, and fluorescent label 2. The table below describes these reagents in greater detail.
On formation of the complex, europium and APC are brought into proximity and a signal is generated.
Non-specific interaction was measured by substituting a mouse Fab fragment (C215) for the CD80 mouse Fab fragment fusion protein (1.9 μg/ml). The assay was carried out in black 384 well plates in a final volume of 30 μl. Assay buffer: 50 mM Tris-HCl, 150 mM NaCl pH7.8, containing 0.1% BSA (w/v) added just prior to use.
Compounds were added to the above reagents in a concentration series ranging between 100 μM-1.7 nM. The reaction was incubated for 4 hours at room temperature. Dual measurements were made using a Wallac Victor 1420 Multilabel Counter. First measurement: excitation 340 nm, emission 665 nm, delay 50 μs, window time 200 μs. second measurement: excitation 340 nm, emission 615 nm, delay 50 μs, window time 200 μs. Counts were automatically corrected for fluorescence crossover, quenching and background.

| Compound | IC50 |
| --- | --- |
| O=C(O)c1ccc(-n2nc3c4ccccc4[nH]c(-c4cccc([N+](=O)[O-])c4)c-3c2=O)cc1 [Example 5, 4-[4-(3-Nitro-phenyl)-3-oxo-3,5-dihydro-pyrazolo[4,3-c]-quinolin-2-yl]-benzoic acid] | 8.6 µM |
| COc1ccc(-c2[nH]c3ccccc3c3nn(-c4ccc(C(=O)O)cc4)c(=O)c2-3)cc1 [Example 7, 4-[4-(4-Methoxyphenyl)-3-oxo-3,5-dihydropyrazolo[4,3-c]-quinolin-2-yl]benzoic acid] | 3.4 µM |
| COc1ccc(-c2[nH]c3ccccc3c3nn(-c4cccc(C(=O)O)c4)c(=O)c2-3)cc1 [Example 9] | 4.6 µM |
